Measured values: patent publication US20110028715A1, “NOVEL ADENINE COMPOUND” (priority 2007, published 2011)
pEC50: −log10 of the molar value. Like-named read-outs stand apart in the source and are kept apart here. Marks after values point to notes of the source that are not given here.

Columns and labels:
[1] = target: T1, human TLR7 (Homo sapiens, UniProt Q9NYK1); assay: Human TLR7 reporter assay (NF-kB-SEAP, HEK 293 cells); type: cell-based; conditions: read-out: human TLR7 binding activity EC50
T1 construct: expressed in transfected cells; host or cells: HEK 293 (hTLR7/seap-293)
T1 sequence (Q9NYK1 27-1049): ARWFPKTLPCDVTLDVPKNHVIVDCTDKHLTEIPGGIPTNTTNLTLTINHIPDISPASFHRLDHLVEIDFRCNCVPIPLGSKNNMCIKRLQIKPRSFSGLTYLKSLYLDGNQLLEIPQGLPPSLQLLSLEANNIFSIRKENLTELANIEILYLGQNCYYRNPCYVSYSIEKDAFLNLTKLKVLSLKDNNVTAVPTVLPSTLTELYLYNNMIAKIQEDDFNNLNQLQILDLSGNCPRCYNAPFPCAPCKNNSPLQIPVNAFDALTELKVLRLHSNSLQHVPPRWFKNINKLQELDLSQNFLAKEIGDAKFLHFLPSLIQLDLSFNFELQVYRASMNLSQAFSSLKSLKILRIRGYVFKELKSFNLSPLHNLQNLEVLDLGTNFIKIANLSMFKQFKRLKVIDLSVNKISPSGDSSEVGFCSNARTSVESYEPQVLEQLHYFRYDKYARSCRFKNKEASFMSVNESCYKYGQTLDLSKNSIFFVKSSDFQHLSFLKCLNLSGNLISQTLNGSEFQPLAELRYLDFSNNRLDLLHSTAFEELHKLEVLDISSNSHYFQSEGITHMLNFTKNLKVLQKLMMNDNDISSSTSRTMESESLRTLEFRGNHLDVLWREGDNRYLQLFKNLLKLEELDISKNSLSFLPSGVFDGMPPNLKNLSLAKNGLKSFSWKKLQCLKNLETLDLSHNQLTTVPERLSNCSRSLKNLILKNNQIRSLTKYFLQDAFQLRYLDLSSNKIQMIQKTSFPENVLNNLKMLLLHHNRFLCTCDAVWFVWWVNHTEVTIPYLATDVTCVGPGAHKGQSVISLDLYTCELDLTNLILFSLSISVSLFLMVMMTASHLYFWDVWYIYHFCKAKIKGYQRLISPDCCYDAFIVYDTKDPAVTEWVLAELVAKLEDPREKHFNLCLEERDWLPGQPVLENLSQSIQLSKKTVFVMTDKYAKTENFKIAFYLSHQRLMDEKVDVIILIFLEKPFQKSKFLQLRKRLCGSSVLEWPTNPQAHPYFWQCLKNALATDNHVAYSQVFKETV
Description: HEK 293 cells, to which human TLR7 or rat TLR7 plasmid and reporter plasmid (NF-kB-SEAP) were stably introduced, were suspended in DMEM medium (10% FBS, 1% NEAA, 10 ug/mL blastocidin S HCl, 100 ug/mL Zeocin), and seeded into a 96-well plate in an amount of 90 μl/well (hTLR7/seap-293: 20,000 cells/well, rTLR7/seap-293: 25,000 cells/well).
A test compound (DMSO stock solution (2 μl) was diluted into 100-fold with the medium (200 μl)) was added into the cells seeded in the 96-well plate in an amount of 10 μl/well (final concentration: 1 nM to 10 μM, common ratio: 3). The side of the plate was lightly patted for stiffing the content of the plate, and the plate was incubated for 20 hours in a CO2 incubator. To the cells that were stimulated with a test compound was added a substrate for reporter assay (substrate for SEAP, pNPP) in an amount of 50 μl/well. The minute later after the addition of the substrate, the solution for reaction quenching (4N NaOH) was added to the plate in an amount of ? 50 μl/well in order to quench the enzyme reaction. A top seal A was applied to the plate, and the absorbance at 405 nm was measured by a microplate reader.
In a similar manner to Example 85, the following compounds were tested.

[2] = test system: IFN-α; assay: IFN-α production inducing activity in mice (plasma IFN-α by L929/2-5AS-Luc bioassay); type: in vivo, B6C3F1 mice; conditions: 3 hours after 1 mg/kg intravenously via tail vein, mean ± standard deviation (n = 3)
Description: A test compound was administered to B6C3F1 mice (Charles River Japan, Inc.) via tail vein at the dose of 1 mg/kg intravenously. After 3 hours, total blood was collected into a sample tube containing heparin. Plasma was prepared from total blood after centrifugation (3,000 rpm, 10 min, at room temperature) and stored at −20° C.
Murine fibroblasts (L929/2-5AS-Luc), which constitutively expressed luciferase gene in which the promoter region for 2′-5′-oligoadenylate synthase was cloned, was seeded into 96-well plate at 4×10^4 cells/well, and cultured for overnight with diluted plasma or mouse IFN-α. After Luclite (Perkin Elmer) was added to the plate, the luciferase activity was measured with TopCount (Perkin Elmer).
The concentration of IFN-α in plasma was calculated by linear regression of logarithmic transformed concentration of mouse IFN-α and the luciferase activity.

[3] = Table 1, HEK 293 hTLR7/NF-kB-SEAP reporter, 20 hours incubation
[4] = Table 6, tested in a similar manner to Example 85

pEC50 [1, 4] | SMILES | pEC50 [1, 3] | further results
– | CCCCOc1nc(N)c2nc(O)n(Cc3ccc(CN4CCOCC4)cc3)c2n1 [Example 1, 6-Amino-2-butoxy-9-(4-morpholin-4-ylmethylbenzyl)-7,9-dihydropurin-8-one] | 8.14 | –
– | CCCCOc1nc(N)c2[nH]c(=O)n(Cc3ccc(CN4CCCCC4)cc3)c2n1 [Example 2, 6-Amino-2-butoxy-9-(4-piperidin-1-ylmethylbenzyl)-7,9-dihydropurin-8-one] | 9.05 | –
– | CCCCOc1nc(N)c2[nH]c(=O)n(Cc3ccc(CN4CCN(C)CC4)cc3)c2n1 [Example 3, 6-Amino-2-butoxy-9-[4-(4-methylpiperazin-1-ylmethyl)benzyl]-7,9-dihydropurin-8-one] | 8.74 | –
– | CCCCOc1nc(N)c2[nH]c(=O)n(Cc3ccc(CN4CCC(N(C)C)CC4)cc3)c2n1 [Example 4, 6-Amino-2-butoxy-9-[4-(4-dimethylaminopiperidin-1-ylmethyl)benzyl]-7,9-dihydropurin-8-one] | 8.60 | –
– | CCCCOc1nc(N)c2[nH]c(=O)n(Cc3ccc(CN4CCC(N(C)C)C4)cc3)c2n1 (centres unmarked) [Example 5, 6-Amino-2-butoxy-9-[4-(3-dimethylaminopyrrolidin-1-ylmethyl)benzyl]-7,9-dihydropurin-8-one] | 8.57 | –
– | COCCOc1nc(N)c2[nH]c(=O)n(Cc3ccc(CN4CCCCC4)cc3)c2n1 [Example 10, 6-Amino-2-(2-methoxyethoxy)-9-(4-piperidin-1-ylmethylbenzyl)-7,9-dihydropurin-8-one] | – | Mouse IFN-α [2]: 7.3 ± 1.6 IU/mL
– | COCCOc1nc(N)c2[nH]c(=O)n(Cc3ccc(CN4CCC(Oc5ccccc5)CC4)cc3)c2n1 [Example 13, 6-Amino-2-(2-methoxyethoxy)-9-[4-(4-phenoxypiperidin-1-ylmethyl)benzyl]-7,9-dihydropurin-8-one] | 7.73 | –
– | Nc1nc(OCCCC(F)(F)F)nc2c1[nH]c(=O)n2Cc1ccc(CN2CCOCC2)cc1 [Example 23, 6-Amino-9-(4-morpholin-4-ylmethylbenzyl)-2-(4,4,4-trifluorobutoxy)-7,9-dihydropurin-8-one] | 7.83 | –
– | CCCCNc1nc(N)c2[nH]c(=O)n(Cc3ccc(CN4CCCCC4)cc3)c2n1 [Example 29, 6-Amino-2-butylamino-9-(4-piperidin-1-ylmethylbenzyl)-7,9-dihydropurin-8-one] | 8.12 | –
– | CCCCOc1nc(N)c2[nH]c(=O)n(Cc3ccc(OCCCN(C)C)cc3)c2n1 [Example 37, 6-Amino-2-butoxy-9-[4-(3-dimethylaminopropoxy)benzyl]-7,9-dihydropurin-8-one] | 8.96 | –
– | COCCOc1nc(N)c2[nH]c(=O)n(Cc3ccc(N4CCN(C)CC4)nc3)c2n1 [Example 42, 6-Amino-2-(2-methoxyethoxy)-9-[6-(4-methylpiperazin-1-yl)pyridin-3-ylmethyl]-7,9-dihydropurin-8-one] | – | Mouse IFN-α [2]: 30.0 ± 7.3 IU/mL
– | CCCCNc1nc(N)c2[nH]c(=O)n(Cc3ccc(OCCN(C)C)nc3)c2n1 [Example 54, 6-Amino-2-butylamino-9-[6-(2-dimethylaminoethoxy)pyridin-3-ylmethyl]-7,9-dihydropurin-8-one] | – | Mouse IFN-α [2]: 53.6 ± 6.5^a) IU/mL
– | CCCCNc1nc(N)c2[nH]c(=O)n(Cc3cnc(N4CCN(C)CC4)c(Cl)c3)c2n1 [Example 56, 6-Amino-2-butylamino-9-[5-chloro-6-(4-methylpiperazin-1-yl)pyridin-3-ylmethyl]-7,9-dihydropurin-8-one] | 8.89 | –
– | CCCCNc1nc(N)c2[nH]c(=O)n(Cc3cnc(OCCN(C)C)c(Cl)c3)c2n1 [Example 58, 6-Amino-2-butylamino-9-[5-chloro-6-(2-dimethylaminoethoxy)pyridin-3-ylmethyl]-7,9-dihydropurin-8-one] | 8.43 | –
– | CCOc1nc(N)c2[nH]c(=O)n(Cc3ccc(CN4CCOCC4)cc3)c2n1 [Example 68, 6-Amino-2-ethoxy-9-(4-morpholin-4-ylmethylbenzyl)-7,9-dihydropurin-8-one] | 8.26 | –
8.48 | COCCOc1nc(N)c2[nH]c(=O)n(Cc3cnc(N4CCN(C)CC4)c(Cl)c3)c2n1 [Example 105, 6-Amino-9-[5-chloro-6-(4-methylpiperazin-1-yl)pyridin-3-ylmethyl]-2-(2-methoxyethoxy)-7,9-dihydropurin-8-one] | – | –
7.78 | COCCOc1nc(N)c2[nH]c(=O)n(Cc3ccc(OCC(C)(C)CN(C)C)nc3)c2n1 [Example 110, 6-Amino-9-[6-(3-dimethylamino-2,2-dimethylpropoxy)pyridin-3-ylmethyl]-2-(2-methoxyethoxy)-7,9-dihydropurin-8-one] | – | –
7.71 | CCCCNc1nc(N)c2[nH]c(=O)n(Cc3ccc(OCCCN(C)C)nc3)c2n1 [Example 116, 6-Amino-2-butylamino-9-[6-(3-dimethylaminopropoxy)pyridin-3-ylmethyl]-7,9-dihydropurin-8-one] | – | –
7.85 | COCCOc1nc(N)c2[nH]c(=O)n(Cc3cnc(OCCN(C)C)c(Cl)c3)c2n1 [Example 118, 6-Amino-9-[5-chloro-6-(2-dimethylaminoethoxy)pyridin-3-ylmethyl]-2-(2-methoxyethoxy)-7,9-dihydropurin-8-one] | – | –
8.43 | COCCOc1nc(N)c2[nH]c(=O)n(Cc3cnc(OCC(C)(C)CN(C)C)c(Cl)c3)c2n1 [Example 120, 6-Amino-9-[5-chloro-6-(3-dimethylamino-2,2-dimethylpropoxy)pyridin-3-ylmethyl]-2-(2-methoxyethoxy)-7,9-dihydropurin-8-one] | – | –
8.16 | COCCOc1nc(N)c2[nH]c(=O)n(Cc3cnc(OC4CCN(C)CC4)c(Cl)c3)c2n1 [Example 123, 6-Amino-9-[5-chloro-6-(1-methylpiperidin-4-yloxy)pyridin-3-ylmethyl]-2-(2-methoxyethoxy)-7,9-dihydropurin-8-one] | – | –

SMILES | pEC50 [1, 4] | pEC50 [1, 3] | further results
CCCCOc1nc(N)c2[nH]c(=O)n(Cc3ccc(CN4CCN(C(=O)CN(C)C)CC4)cc3)c2n1 [Example 94, 6-Amino-2-butoxy-9-{4-[4-(2-dimethylaminoacetyl)piperazin-1-ylmethyl]benzyl}-7,9-dihydropurin-8-one] | 8.60 | – | –
CCCCOc1nc(N)c2[nH]c(=O)n(Cc3ccc(N(C)CCN(C)C)nc3)c2n1 [Example 104, 6-Amino-2-butoxy-9-{6-[(2-dimethylaminoethyl)methylamino]pyridin-3-ylmethyl}-7,9-dihydropurin-8-one] | 8.28 | – | –
